# Patent publication US10961198B2, “Farnesoid X receptor agonists and uses thereof” (Metacrine, Inc., priority 2017, dated 2021)
# Target: hFXR (Homo sapiens (Human), UniProt Q96RI1)
# Experiment: In Vitro FXR Assay (TK)
# Format: cell-based
# Conditions: CV-1 cells transfected with hFXR, hRXR, TK-ECRE-luc and pCMX-YFP; incubated 18 hrs; luminescence; maximum efficacy <25% of the Fexarmine control classified as '+'
# Experimental: Example B-1: In Vitro FXR Assay (TK)
# CV-1 cells were seeded at a density of 2,000,000 cells in a T175 flask with DMEM+10% charcoal double-stripped FBS and incubated at 37° C. in 5% CO2 for 18 h (O/N).
# After 18 h of incubation, the medium in the T175 flask was changed with fresh DMEM+10% charcoal super-stripped serum. In a polypropylene tube, 2500 μL OptiMEM (Life Technologies, Cat #31985-062) was combined with expression plasmids for hFXR, hRXR, TK-ECRE-luc and pCMX-YFP. The tube was then briefly vortexed and incubated at room temperature for 5 minutes. Transfection reagent (X-tremeGENE HP from Roche, Cat #06 366 236 001) was added to the OptiMEM/plasmid mixture vortexed and incubated at room temperature for 20 minutes. Following incubation, the transfection reagent/DNA mixture complex was added to cells in the T175 flask and the cells were incubated at 37° C. in 5% CO2 for 18 h (O/N).
# Compounds were serially diluted in DMSO and added to transfected CV-1 cells. The cells were then incubated for 18 hrs. The next day cells were lysed and examined for luminescence.
# Chain of hFXR (Q96RI1 whole entry): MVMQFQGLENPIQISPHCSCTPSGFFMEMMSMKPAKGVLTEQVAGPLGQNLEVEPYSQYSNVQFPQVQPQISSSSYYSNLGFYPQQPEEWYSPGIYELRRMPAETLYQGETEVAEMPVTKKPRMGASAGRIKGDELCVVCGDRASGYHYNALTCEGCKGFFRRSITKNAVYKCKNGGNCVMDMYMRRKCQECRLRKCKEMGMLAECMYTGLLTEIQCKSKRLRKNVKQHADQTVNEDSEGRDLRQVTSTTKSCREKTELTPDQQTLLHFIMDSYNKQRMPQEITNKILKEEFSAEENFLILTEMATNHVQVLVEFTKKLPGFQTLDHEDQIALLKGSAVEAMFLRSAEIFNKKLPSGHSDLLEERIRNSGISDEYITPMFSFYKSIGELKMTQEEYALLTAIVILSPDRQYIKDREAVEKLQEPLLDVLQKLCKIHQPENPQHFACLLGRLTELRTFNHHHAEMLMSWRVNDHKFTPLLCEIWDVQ
# Chain of hFXR (P19793 whole entry partner): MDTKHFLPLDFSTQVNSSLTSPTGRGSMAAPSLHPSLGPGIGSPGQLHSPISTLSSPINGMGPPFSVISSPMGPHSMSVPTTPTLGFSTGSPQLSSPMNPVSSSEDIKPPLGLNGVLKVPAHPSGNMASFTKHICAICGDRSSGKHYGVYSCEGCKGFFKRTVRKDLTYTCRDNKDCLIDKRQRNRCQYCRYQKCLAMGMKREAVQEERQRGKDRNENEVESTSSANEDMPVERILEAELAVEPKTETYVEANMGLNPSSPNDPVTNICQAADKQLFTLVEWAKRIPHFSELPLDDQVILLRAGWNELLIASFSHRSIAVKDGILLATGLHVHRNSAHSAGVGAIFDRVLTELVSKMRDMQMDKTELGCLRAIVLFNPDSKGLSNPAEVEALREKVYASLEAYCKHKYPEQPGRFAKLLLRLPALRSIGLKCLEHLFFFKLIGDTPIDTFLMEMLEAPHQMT
row,Compound,EC50 [nM]
1,"O=C([C@H]1CC[C@H](O)CC1)N(C[C@H]1CC[C@H](c2ccc3c(c2)OCO3)CC1)c1cccc(-c2cnn(C3CC3)c2)c1 [Compound 5.06, trans-N-((trans-4-(Benzo[d][1,3]dioxol-5-yl)cyclohexyl)methyl)-N-(3-(1-cyclopropyl-1H-pyrazol-4-yl)phenyl)-4-hydroxycyclohexanecarboxamide]",≤ 250
2,"COc1ccc([C@H]2CC[C@H](CN(c3cccc(-c4cnn(C(C)(C)C)c4)c3)C(=O)[C@H]3CC[C@H](O)CC3)CC2)cc1C [Compound 5.08, trans-N-(3-(1-(tert-Butyl)-1H-pyrazol-4-yl)phenyl)-4-hydroxy-N-((trans-4-(4-methoxy-3-methylphenyl)cyclohexyl)methyl)cyclohexanecarboxamide]",≤ 250
3,"COc1ccc([C@H]2CC[C@H](CN(c3cc(-c4cnn(C(C)C)c4)ccn3)C(=O)[C@H]3CC[C@H](O)CC3)CC2)cc1C [Compound 5.11, trans-4-Hydroxy-N-(4-(1-isopropyl-1H-pyrazol-4-yl)pyridin-2-yl)-N-((trans-4-(4-methoxy-3-methylphenyl)cyclohexyl)methyl)cyclohexanecarboxamide]",≤ 250
4,"COc1ccc([C@H]2CC[C@H](CN(c3cc(-c4cnn(C5CC5)c4)ccn3)C(=O)[C@H]3CC[C@H](O)CC3)CC2)cc1C#N [Compound 5.13, trans-N-((trans-4-(3-Cyano-4-methoxyphenyl)cyclohexyl)methyl)-N-(4-(1-cyclopropyl-1H-pyrazol-4-yl)pyridin-2-yl)-4-hydroxycyclohexanecarboxamide]",≤ 250
5,"COc1ccc([C@H]2CC[C@H](CN(c3cc(-c4cnn(C(C)C)c4)ccn3)C(=O)[C@H]3CC[C@H](O)CC3)CC2)cc1C#N [Compound 5.14, trans-N-((trans-4-(3-Cyano-4-methoxyphenyl)cyclohexyl)methyl)-4-hydroxy-N-(4-(1-isopropyl-1H-pyrazol-4-yl)pyridin-2-yl)cyclohexanecarboxamide]",≤ 250
6,"COc1ccc([C@H]2CC[C@H](CN(c3cccc(-c4cnn(C(C)(C)C)c4)c3)C(=O)[C@H]3CC[C@H](O)CC3)CC2)nc1C [Compound 5.15, trans-N-(3-(1-(tert-Butyl)-1H-pyrazol-4-yl)phenyl)-4-hydroxy-N-((trans-4-(5-methoxy-6-methylpyridin-2-yl)cyclohexyl)methyl)cyclohexanecarboxamide]",≤ 250
7,"CCn1cc([C@H]2CC[C@H](CN(c3cccc(-c4cnn(C5CC5)c4)c3)C(=O)[C@H]3CC[C@H](O)CC3)CC2)cn1 [Compound 5.16, trans-N-(3-(1-Cyclopropyl-1H-pyrazol-4-yl)phenyl)-N-((trans-4-(1-ethyl-1H-pyrazol-4-yl)cyclohexyl)methyl)-4-hydroxycyclohexanecarboxamide]",250 to 1000
8,"COc1ccc([C@H]2CC[C@H](CN(c3cc(-c4cnn(C(C)C)c4)ccn3)C(=O)[C@H]3CC[C@H](O)CC3)CC2)nc1C [Compound 5.19, trans-4-Hydroxy-N-(4-(1-isopropyl-1H-pyrazol-4-yl)pyridin-2-yl)-N-((trans-4-(5-methoxy-6-methylpyridin-2-yl)cyclohexyl)methyl)cyclohexanecarboxamide]",≤ 250
9,"COc1ccc([C@H]2CC[C@H](CN(c3cc(-c4cnn(C(C)C)c4)ccn3)C(=O)[C@H]3CC[C@H](O)CC3)CC2)nc1C#N [Compound 5.20, trans-N-((trans-4-(6-Cyano-5-methoxypyridin-2-yl)cyclohexyl)methyl)-4-hydroxy-N-(4-(1-isopropyl-1H-pyrazol-4-yl)pyridin-2-yl)cyclohexanecarboxamide]",250 to 1000

# Now from value to compound:
row,EC50 [nM],Compound
1,≤ 250,"COc1ccc([C@H]2CC[C@H](CN(c3cccc(-c4cnn(C5CC5)c4)c3)C(=O)[C@H]3CC[C@H](O)CC3)CC2)nc1C#N [Compound 5.05, trans-N-((trans-4-(6-Cyano-5-methoxypyridin-2-yl)cyclohexyl)methyl)-N-(3-(1-cyclopropyl-1H-pyrazol-4-yl)phenyl)-4-hydroxycyclohexanecarboxamide]"
2,≤ 250,"COc1ccc([C@H]2CC[C@H](CN(c3cccc(-c4cnn(C(C)C)c4)c3)C(=O)[C@H]3CC[C@H](O)CC3)CC2)nc1C [Compound 5.07, trans-4-Hydroxy-N-(3-(1-isopropyl-1H-pyrazol-4-yl)phenyl)-N-((trans-4-(5-methoxy-6-methylpyridin-2-yl)cyclohexyl)methyl)cyclohexanecarboxamide]"
3,250 to 1000,"COc1ccc([C@H]2CC[C@H](CN(c3cc(-c4cnn(C5CC5)c4)ccn3)C(=O)[C@H]3CC[C@H](O)CC3)CC2)nc1C [Compound 5.09, trans-N-(4-(1-Cyclopropyl-1H-pyrazol-4-yl)pyridin-2-yl)-4-hydroxy-N-((trans-4-(5-methoxy-6-methylpyridin-2-yl)cyclohexyl)methyl)cyclohexanecarboxamide]"
4,≤ 250,"COc1ncc([C@H]2CC[C@H](CN(c3cccc(-c4cnn(C5CC5)c4)c3)C(=O)[C@H]3CC[C@H](O)CC3)CC2)cc1Cl [Compound 5.10, trans-N-((trans-4-(5-chloro-6-methoxypyridin-3-yl)cyclohexyl)methyl)-N-(3-(1-cyclopropyl-1H-pyrazol-4-yl)phenyl)-4-hydroxycyclohexanecarboxamide]"
5,≤ 250,"COc1ncc([C@H]2CC[C@H](CN(c3cccc(-c4cnn(C5CC5)c4)c3)C(=O)[C@H]3CC[C@H](O)CC3)CC2)cc1C [Compound 5.12, trans-N-(3-(1-Cyclopropyl-1H-pyrazol-4-yl)phenyl)-4-hydroxy-N-((trans-4-(6-methoxy-5-methylpyridin-3-yl)cyclohexyl)methyl)cyclohexanecarboxamide]"
6,≤ 250,"COc1ccc([C@H]2CC[C@H](CN(c3cccc(-c4cnn(C5CCC5)c4)c3)C(=O)[C@H]3CC[C@H](O)CC3)CC2)nc1C [Compound 5.17, trans-N-(3-(1-Cyclobutyl-1H-pyrazol-4-yl)phenyl)-4-hydroxy-N-((trans-4-(5-methoxy-6-methylpyridin-2-yl)cyclohexyl)methyl)cyclohexanecarboxamide]"
7,250 to 1000,"COc1cnc([C@H]2CC[C@H](CN(c3cccc(-c4cnn(C5CC5)c4)c3)C(=O)[C@H]3CC[C@H](O)CC3)CC2)cc1C [Compound 5.18, trans-N-(3-(1-Cyclopropyl-1H-pyrazol-4-yl)phenyl)-4-hydroxy-N-((trans-4-(5-methoxy-4-methylpyridin-2-yl)cyclohexyl)methyl)cyclohexanecarboxamide]"
8,≥ 1000,"Cn1ccc2cc([C@H]3CC[C@H](CN(c4cccc(-c5cnn(C6CC6)c5)c4)C(=O)[C@H]4CC[C@H](O)CC4)CC3)ncc21 [Compound 5.21, trans-N-(3-(1-Cyclopropyl-1H-pyrazol-4-yl)phenyl)-4-hydroxy-N-((trans-4-(1-methyl-1H-pyrrolo[2,3-c]pyridin-5-yl)cyclohexyl)methyl)cyclohexanecarboxamide]"
9,250 to 1000,"COc1ccc([C@H]2CC[C@H](CN(c3cc(-c4cnn(C5CC5)c4)ccn3)C(=O)[C@H]3CC[C@H](O)CC3)CC2)nc1C#N [Compound 5.22, trans-N-((trans-4-(6-Cyano-5-methoxypyridin-2-yl)cyclohexyl)methyl)-N-(4-(1-cyclopropyl-1H-pyrazol-4-yl)pyridin-2-yl)-4-hydroxycyclohexanecarboxamide]"
